# Where “and” joins values, the source holds several entries; their conditions need not be identical. Equal entries are not always repeated.
# Columns and labels:
# AKT2 = AKT2 (Homo sapiens, UniProt P31751); conditions: 1 μM; Run 1, Run 2
# GSK3a = GSK3a (Homo sapiens, UniProt P49840); conditions: 1 μM; Run 1, Run 2
# MST3/STK24 = MST3/STK24 (Homo sapiens, UniProt Q9Y6E0); conditions: 1 μM; Run 1, Run 2
# PKCeta = PKCeta (Homo sapiens, UniProt P24723); conditions: 1 μM; Run 1, Run 2
# PKCmu/PRKD1 = molecular target: T1, PKCmu/PRKD1 (Homo sapiens, UniProt Q15139); conditions: 1 μM; Run 1, Run 2
# T1 sequence (Q15139 1-912): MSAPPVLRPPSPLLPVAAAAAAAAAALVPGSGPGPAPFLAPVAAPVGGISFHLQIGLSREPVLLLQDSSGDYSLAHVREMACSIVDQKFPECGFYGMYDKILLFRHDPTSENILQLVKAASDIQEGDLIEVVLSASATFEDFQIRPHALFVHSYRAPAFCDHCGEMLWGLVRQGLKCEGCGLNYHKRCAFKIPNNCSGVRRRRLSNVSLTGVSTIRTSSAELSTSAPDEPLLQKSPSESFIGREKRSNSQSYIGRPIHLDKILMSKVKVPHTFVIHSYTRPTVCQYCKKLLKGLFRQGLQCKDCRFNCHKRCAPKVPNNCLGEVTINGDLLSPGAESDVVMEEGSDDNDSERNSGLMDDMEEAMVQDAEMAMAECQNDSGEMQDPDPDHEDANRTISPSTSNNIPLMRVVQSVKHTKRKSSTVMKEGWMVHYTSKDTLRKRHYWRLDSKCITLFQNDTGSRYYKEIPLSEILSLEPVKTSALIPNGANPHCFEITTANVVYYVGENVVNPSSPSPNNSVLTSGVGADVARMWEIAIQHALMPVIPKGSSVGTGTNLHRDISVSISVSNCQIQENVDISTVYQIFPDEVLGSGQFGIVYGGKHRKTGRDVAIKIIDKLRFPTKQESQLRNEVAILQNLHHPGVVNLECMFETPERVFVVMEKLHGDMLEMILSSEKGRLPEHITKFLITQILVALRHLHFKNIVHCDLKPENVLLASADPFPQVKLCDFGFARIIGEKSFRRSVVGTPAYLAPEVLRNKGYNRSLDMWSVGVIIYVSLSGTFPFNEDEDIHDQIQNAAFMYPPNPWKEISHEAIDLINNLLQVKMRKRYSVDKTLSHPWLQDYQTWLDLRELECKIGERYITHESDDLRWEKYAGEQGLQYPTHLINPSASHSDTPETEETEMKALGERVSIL
# PYK2 = PYK2 (Homo sapiens, UniProt Q14289); conditions: 1 μM; Run 1, Run 2
# RIPK5 = molecular target: T2, RIPK5 (Homo sapiens, UniProt Q6XUX3); conditions: 1 μM; Run 1, Run 2
# T2 sequence (Q6XUX3 1-929): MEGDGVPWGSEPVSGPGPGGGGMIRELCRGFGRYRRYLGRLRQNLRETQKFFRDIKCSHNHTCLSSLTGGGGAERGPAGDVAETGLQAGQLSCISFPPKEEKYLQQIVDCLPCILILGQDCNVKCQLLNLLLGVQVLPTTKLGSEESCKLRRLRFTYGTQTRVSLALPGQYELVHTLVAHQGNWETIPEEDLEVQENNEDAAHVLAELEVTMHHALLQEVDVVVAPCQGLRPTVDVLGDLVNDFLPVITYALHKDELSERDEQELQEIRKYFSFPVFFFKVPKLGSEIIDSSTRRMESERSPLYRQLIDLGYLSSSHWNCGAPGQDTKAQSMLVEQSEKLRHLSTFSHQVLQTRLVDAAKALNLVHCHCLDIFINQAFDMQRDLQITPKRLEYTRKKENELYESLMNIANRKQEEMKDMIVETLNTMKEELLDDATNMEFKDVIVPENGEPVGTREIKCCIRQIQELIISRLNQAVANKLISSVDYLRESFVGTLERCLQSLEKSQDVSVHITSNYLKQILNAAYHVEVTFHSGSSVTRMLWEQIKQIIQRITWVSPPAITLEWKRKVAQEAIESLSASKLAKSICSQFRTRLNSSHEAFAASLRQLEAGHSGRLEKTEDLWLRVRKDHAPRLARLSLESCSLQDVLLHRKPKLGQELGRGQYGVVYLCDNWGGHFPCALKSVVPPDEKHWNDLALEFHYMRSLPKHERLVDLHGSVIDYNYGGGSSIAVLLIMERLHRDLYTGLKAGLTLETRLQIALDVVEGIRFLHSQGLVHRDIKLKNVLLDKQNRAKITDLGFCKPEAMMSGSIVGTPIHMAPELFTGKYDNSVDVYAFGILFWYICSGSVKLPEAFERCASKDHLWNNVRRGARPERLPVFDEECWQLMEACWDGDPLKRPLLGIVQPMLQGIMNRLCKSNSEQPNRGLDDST
# TAK1 = molecular target: T3, TAK1 (Homo sapiens, UniProt O43318); conditions: 1 μM; Run 1, Run 2
# T3 sequence (O43318 1-303 limits assumed): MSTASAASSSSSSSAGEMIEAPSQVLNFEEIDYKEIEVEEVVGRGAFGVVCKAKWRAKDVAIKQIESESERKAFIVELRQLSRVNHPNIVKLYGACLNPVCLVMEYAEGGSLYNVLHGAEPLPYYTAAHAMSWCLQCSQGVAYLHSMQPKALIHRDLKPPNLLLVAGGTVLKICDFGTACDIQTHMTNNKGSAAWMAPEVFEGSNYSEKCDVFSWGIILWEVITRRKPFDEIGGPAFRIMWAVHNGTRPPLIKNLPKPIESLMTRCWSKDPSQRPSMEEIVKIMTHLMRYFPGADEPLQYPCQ
# CAMKK1 = CAMKK1 (Homo sapiens, UniProt Q8N5S9); experiment: biochemical; conditions: read-out: % enzyme activity, 1 μM; Run 1, Run 2
# CLK3 = CLK3 (Homo sapiens, UniProt P49761); experiment: biochemical; conditions: read-out: % enzyme activity, 1 μM; Run 1, Run 2
# Sequence of CLK3 (P49761 whole entry): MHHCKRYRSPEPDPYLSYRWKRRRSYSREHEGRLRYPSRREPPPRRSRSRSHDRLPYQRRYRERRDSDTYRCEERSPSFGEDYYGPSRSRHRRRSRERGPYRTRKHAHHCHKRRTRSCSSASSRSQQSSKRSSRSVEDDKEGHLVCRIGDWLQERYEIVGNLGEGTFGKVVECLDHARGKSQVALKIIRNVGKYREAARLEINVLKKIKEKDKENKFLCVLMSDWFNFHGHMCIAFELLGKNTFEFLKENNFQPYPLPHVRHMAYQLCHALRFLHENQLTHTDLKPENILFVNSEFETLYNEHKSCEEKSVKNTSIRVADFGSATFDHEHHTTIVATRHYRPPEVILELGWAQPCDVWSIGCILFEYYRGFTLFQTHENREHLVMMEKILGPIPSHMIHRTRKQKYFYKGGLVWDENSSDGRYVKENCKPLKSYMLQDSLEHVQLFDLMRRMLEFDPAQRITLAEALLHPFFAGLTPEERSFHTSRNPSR
# FLT4/VEGFR3 = FLT4/VEGFR3 (Homo sapiens, UniProt P35916); experiment: biochemical; conditions: read-out: % enzyme activity, 1 μM; Run 1, Run 2
# Sequence of FLT4/VEGFR3 (P35916 25-1363): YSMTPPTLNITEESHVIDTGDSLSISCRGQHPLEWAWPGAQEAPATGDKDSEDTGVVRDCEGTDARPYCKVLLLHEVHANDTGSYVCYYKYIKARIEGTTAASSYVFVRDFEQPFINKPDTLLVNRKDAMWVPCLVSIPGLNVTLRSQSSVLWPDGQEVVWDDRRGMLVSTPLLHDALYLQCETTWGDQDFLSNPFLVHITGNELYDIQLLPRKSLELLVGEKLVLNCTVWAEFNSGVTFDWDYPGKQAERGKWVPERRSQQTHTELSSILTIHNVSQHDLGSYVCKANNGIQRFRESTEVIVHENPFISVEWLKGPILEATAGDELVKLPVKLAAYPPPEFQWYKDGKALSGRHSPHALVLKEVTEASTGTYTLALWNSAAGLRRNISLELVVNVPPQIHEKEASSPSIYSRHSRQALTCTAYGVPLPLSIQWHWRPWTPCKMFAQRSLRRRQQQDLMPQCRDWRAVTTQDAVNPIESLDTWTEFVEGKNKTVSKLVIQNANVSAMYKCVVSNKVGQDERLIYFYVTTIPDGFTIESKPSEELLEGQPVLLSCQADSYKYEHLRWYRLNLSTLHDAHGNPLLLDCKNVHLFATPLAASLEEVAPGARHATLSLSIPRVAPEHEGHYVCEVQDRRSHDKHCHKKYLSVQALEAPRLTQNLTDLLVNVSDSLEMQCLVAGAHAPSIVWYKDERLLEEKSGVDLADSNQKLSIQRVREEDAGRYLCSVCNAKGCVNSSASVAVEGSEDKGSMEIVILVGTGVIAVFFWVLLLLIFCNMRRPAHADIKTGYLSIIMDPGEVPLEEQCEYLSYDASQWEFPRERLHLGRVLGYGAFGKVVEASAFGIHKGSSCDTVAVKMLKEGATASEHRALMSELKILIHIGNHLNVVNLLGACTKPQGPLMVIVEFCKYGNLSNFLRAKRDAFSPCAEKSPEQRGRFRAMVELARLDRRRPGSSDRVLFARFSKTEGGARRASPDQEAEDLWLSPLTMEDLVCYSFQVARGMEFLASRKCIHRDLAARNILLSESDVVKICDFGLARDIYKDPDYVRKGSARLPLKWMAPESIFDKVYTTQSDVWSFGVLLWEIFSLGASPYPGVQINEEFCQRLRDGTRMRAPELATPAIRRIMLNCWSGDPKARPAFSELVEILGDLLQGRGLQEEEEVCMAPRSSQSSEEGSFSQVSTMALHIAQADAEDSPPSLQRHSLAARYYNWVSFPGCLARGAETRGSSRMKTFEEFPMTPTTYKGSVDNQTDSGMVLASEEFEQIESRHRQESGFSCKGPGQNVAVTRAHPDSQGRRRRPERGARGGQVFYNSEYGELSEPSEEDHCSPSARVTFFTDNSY
# MLK4 = MLK4 (Homo sapiens, UniProt Q5TCX8); experiment: biochemical; conditions: read-out: % enzyme activity, 1 μM; Run 1, Run 2
# PAK1 = PAK1 (Homo sapiens, UniProt Q13153); experiment: biochemical; conditions: read-out: % enzyme activity, 1 μM; Run 1, Run 2
# PAK3 = PAK3 (Homo sapiens, UniProt O75914); experiment: biochemical; conditions: read-out: % enzyme activity, 1 μM; Run 1, Run 2
# Sequence of PAK3 (O75914 whole entry): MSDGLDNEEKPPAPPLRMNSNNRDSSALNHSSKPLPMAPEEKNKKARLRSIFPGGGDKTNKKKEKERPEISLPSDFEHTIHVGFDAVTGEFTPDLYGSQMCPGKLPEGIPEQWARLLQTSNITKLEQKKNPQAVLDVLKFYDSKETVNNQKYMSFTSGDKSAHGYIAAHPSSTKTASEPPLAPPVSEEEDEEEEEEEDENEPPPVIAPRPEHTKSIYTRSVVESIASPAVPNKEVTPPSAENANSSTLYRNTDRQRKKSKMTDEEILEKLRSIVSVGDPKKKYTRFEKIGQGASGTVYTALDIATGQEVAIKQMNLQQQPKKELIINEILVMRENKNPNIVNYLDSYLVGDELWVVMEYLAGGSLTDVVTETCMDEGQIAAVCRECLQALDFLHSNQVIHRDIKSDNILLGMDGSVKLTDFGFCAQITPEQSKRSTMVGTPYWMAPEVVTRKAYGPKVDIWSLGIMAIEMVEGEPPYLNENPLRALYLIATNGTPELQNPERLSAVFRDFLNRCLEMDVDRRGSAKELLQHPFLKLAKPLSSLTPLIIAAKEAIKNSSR
# RSK2 = RSK2 (Homo sapiens, UniProt P51812); experiment: biochemical; conditions: read-out: % enzyme activity, 1 μM; Run 1, Run 2
# Sequence of RSK2 (P51812 whole entry): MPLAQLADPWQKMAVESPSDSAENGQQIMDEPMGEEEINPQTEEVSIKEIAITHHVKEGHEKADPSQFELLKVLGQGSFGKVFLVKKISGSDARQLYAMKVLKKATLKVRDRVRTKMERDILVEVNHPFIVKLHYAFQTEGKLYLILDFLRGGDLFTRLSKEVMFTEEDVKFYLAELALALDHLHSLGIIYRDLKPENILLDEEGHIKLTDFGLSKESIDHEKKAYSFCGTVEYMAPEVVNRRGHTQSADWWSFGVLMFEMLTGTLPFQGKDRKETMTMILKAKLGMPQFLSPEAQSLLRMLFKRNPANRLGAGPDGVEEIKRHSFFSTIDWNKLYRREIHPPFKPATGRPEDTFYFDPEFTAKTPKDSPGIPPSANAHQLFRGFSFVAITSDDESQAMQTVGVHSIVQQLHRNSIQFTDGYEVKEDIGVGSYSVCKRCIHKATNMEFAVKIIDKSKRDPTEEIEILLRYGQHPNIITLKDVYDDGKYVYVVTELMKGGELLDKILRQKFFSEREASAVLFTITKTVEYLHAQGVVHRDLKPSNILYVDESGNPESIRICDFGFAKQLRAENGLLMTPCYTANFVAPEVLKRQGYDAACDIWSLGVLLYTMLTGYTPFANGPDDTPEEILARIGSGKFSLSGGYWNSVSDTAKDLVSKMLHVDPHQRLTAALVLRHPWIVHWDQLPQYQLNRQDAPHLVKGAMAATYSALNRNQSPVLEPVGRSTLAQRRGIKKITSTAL
# Sequence of GSK3a (P49840 whole entry): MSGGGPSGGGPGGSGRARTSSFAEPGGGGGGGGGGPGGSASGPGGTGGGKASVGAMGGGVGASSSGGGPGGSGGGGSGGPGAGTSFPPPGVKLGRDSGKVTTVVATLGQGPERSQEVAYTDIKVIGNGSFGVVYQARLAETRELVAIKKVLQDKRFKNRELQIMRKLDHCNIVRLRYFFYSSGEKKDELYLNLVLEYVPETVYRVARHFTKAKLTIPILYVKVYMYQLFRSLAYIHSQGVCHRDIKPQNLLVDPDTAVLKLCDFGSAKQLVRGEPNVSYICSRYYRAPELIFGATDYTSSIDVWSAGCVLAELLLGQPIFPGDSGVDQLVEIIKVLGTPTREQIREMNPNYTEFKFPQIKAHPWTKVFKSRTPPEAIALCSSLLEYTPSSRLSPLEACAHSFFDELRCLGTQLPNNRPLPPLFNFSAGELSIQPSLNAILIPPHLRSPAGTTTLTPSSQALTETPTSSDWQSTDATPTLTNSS
# Sequence of AKT2 (P31751 whole entry): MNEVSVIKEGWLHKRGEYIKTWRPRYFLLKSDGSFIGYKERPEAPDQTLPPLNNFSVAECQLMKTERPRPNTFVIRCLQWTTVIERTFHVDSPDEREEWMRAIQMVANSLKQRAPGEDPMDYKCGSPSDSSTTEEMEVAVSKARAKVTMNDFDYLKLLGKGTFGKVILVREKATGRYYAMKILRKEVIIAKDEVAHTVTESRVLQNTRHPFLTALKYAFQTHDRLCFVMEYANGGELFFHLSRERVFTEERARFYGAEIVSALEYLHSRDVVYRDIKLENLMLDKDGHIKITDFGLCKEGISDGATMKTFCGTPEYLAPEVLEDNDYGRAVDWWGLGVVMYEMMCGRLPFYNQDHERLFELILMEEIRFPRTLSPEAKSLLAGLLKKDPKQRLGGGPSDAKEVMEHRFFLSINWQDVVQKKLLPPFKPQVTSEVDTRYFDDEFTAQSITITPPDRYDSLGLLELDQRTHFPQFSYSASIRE
# Sequence of PKCeta (P24723 whole entry): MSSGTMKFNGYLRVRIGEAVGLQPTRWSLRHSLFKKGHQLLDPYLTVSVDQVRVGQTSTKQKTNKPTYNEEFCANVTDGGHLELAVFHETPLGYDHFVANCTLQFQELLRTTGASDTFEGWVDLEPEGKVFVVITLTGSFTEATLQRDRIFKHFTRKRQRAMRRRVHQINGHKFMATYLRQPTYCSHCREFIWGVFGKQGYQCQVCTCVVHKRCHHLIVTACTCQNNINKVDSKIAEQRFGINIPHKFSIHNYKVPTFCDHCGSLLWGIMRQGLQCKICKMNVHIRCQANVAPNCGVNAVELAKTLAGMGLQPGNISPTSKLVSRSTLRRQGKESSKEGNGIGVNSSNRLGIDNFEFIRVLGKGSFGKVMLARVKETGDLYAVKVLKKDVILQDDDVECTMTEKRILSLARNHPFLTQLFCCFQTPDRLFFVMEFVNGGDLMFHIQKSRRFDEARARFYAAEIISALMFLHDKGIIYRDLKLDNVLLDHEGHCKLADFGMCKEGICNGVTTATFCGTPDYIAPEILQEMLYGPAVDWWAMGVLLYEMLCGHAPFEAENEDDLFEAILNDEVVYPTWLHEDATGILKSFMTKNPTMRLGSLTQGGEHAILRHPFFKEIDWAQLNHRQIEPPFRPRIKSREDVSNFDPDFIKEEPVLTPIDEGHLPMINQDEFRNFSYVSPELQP
SMILES,% enzyme activity at 1 μM (DYRK1B),% enzyme activity (AKT2) [%],% enzyme activity (GSK3a) [%],% enzyme activity (MST3/STK24) [%],% enzyme activity (PKCeta) [%],% enzyme activity (PKCmu/PRKD1) [%],% enzyme activity (PYK2) [%],% enzyme activity (RIPK5) [%],% enzyme activity (TAK1) [%],remaining activity at 1 µM (CAMKK1) [%],remaining activity at 1 µM (CLK3) [%],remaining activity at 1 µM (FLT4/VEGFR3) [%],remaining activity at 1 µM (MLK4) [%],remaining activity at 1 µM (PAK1) [%],remaining activity at 1 µM (PAK3) [%],remaining activity at 1 µM (RSK2) [%]
"COc1cc(-c2cncc(-c3ccc(N4CCN(C)CC4)cc3)c2C)cc(F)c1C(N)=O [Compound 26a, 2-Fluoro-6-methoxy-4-(4-methyl-5-(4-(4-methylpiperazin-1-yl)phenyl)pyridin-3-yl)benzamide]",40.6% and 39.8%,91.70,100.80,87.91,93.90,88.26,85.65,82.21,97.44,94.7,103,98.4,95.3,105,89.5,101
"COc1cc(-c2cncc(-c3ccc(N4C[C@@H](C)N(C)[C@@H](C)C4)cc3)c2C)cc(F)c1C(N)=O [Compound 26c, 2-Fluoro-6-methoxy-4-(4-methyl-5-(4-((3R,5S)-3,4,5-trimethylpiperazin-1-yl)phenyl)pyridin-3-yl)benzamide]",59.2% and 58.5%,92.08,101.44,94.57,98.10,95.09,85.73,86.47,98.46,94,88.3,97.1,96.2,103,125,103
